How the values were obtained:
3T3-L1 adipocytes [1] = assay: Calcium flux measurement (FluoForte); assay type: cell-based, Murine
Description: 3T3-L1 cells were cultured and differentiated in black wall/clear bottom 96-well plates (Corning). At day seven post-induction, cells were starved overnight in DMEM containing 1 % BSA and loaded with the calcium dye FluoForte AM (Enzo Lifescience) according to the instructions provided by the manufacturer. Intracellular calcium levels were measured using a Synergy 4 microplate reader (BioTeK). […] Baselines for each well were acquired before injection and subtracted afterwards. Ionomycin and EGTA were injected in concentrations of 1 µM.

3T3-L1 adipocytes [2] = assay type: cell-based, Murine
Description: Murine 3T3-L1 preadipocytes (ATCC) were maintained in DMEM containing 10% heat inactivated calf serum (CS) at 37°C and 5% CO2. Two days post-confluence, adipocyte differentiation was induced by treating cells with 0.25 mM 3-Isobutyl-1-methylxanthine (IBMX), 1 µM dexamethasone, 1.74 µM insulin and 5 µM Troglitazone in DMEM containing 10% fetal bovine serum (FBS). After 48 hours, the medium was replaced with DMEM supplemented with 10% FBS, insulin and Troglitazone alone. After an additional 48 hours, cells were switched to DMEM with 10% FBS for the rest of the differentiation process and the medium was changed every other day. Seven days post-induction, differentiated 3T3-L1 1 adipocytes were starved overnight in DMEM containing 1 % Bovine Serum Albumin (BSA) before starting different treatments as indicated in the text.
Differentiated 3T3-L1 adipocytes were starved overnight in DMEM containing 1 % BSA and treated as indicated. NAD^+, NADP^+, NADH, and NADPH were determined using the Enzychrom NAD^+/NADH and the Enzychrom NADP^+/NADPH assay kit, respectively (BioAssay Systems) according to manufacturer's instructions. To measure glucose consumption and lactate production, the Glucose RTU and Lactate RTU kits (Biomerieux) were used according to manufacturer's instruction and normalized to cell number. AMP, ADP and ATP were determined as previously described^51. In brief, cells were washed once with ice cold PBS and proteins were precipitated with 1 % trichloroacetic acid (TCA). Repeated ether washes were used to remove TCA from the aqueous extract phase. Extracts were dried and stored at -80°C until further processing. To determine nucleotide phosphates by reversed-phase HPLC cell extracts were lyophilized for 3 days at -20 °C. Dried samples were dissolved in mobile phase A (60 mM K2HP04 and 40 mM KH2P04, adjusted to pH 7 with 0.1 M KOH). 20 µL were injected into an Agilent 1200 HPLC system (Agilent) and nucleotides were separated by gradient elution from an Agilent Eclipse XDB-C18 4.6 x 150 mm column at a flow rate of 1 mL/min. The gradient was 99% phase A from 0-5 minutes, 99% phase A to 40% A from 5-20 minutes and 99% phase A from 20-32.5 minutes. 100% acetonitrile served as mobile phase B. Eluting nucleotides were monitored on a UV detector at 254 nm. ATP, ADP and AMP standards were used to generate calibration curves for peak quantifications.

AMPK = assay: AMPKAR FRET assay of AMPK activity; assay type: cell-based, Human; conditions: cyclopamine, HEK293 with AMPK-AR reporter
Description: HEK293 cells (ATCC) were grown in DMEM containing 10% FBS. 2 x 10^6 cells were seeded in 10 cm dishes and transfected using the GeneJuice Reagent (Merck) according to manufacturer's instructions. 48 hours after transfection, cells were resuspended in PBS and used for FRET assays.
HEK293 cells transfected with the AMPK-AR construct^40 were resuspended in PBS at a concentration of 10^5 cells/ml. A Synergy 4 microplate reader (BioTeK) was used for measuring FRET signals. In brief, compounds were pipetted into a 96-well plate at the concentrations indicated in the text. Cell suspensions were pre-loaded in the reader to be injected at 10^4 cells/well. The FRET signal was detected using 420/50 nm and 528/20 nm as excitation and emission settings. Baseline values for each well were acquired before injection and subtracted afterwards.

C57BL/6J mice [3] = assay: Oral glucose tolerance test (OGTT); assay type: in vivo
Description: (§1) C57BL/6J mice were maintained on a standard rodent chow diet and a 12 hour light: 12 hour dark cycle. Eight week old, over-night fasted C57BL/6J male mice were injected intraperitoneally (i.p.) with vehicle (45% hydroxypropyl-β-cyclodextrin; HBS) or cyclopamine (10 mg/kg). Fifteen minutes after injection, an oral glucose tolerance test (OGTT) was performed by administering 2 g/kg glucose by oral gavage. Tail-vein blood was collected to measure glucose and insulin levels. Insulin was measured using the ultrasensitive insulin ELISA Kit from Mercodia, according to the manufacturer's recommendations. For cyclopamine tolerance tests eight week old C57BL/6J mice were i.p. injected with streptozotocin (STZ, 200 mg/kg body weight) to destroy pancreatic beta-cells. 72 hours later STZ-treated mice were separated into two groups and injected i.p. with either vehicle or 10 mg/kg cyclopamine. All animal experiments were carried out according to an ethical animal license protocol in accordance to the animal protection law and approved by the Regierungspräsidium Freiburg (Tierversuchsvorhaben Registrier-Nr.: G-10/94).

C57BL/6J mice [4] = assay: Glycemic-insulinemic clamp with somatostatin infusion; assay type: in vivo
Description: Indwelling catheters were placed into the left femoral vein and externalised in the interscapular region of 11 week old C57BL/6J mice^17,52. The animals were allowed to recover for 5 days and fasted for 16 hours before the experiment. Somatostatin (SST14 Bachem, Switzerland) was infused at a rate of 1 µg/kg/min and hyperglycemia (12.5 mM) was maintained by variable infusion of 10% glucose. Steady state was maintained for 90 min before cyclopamine injection (2/3 bolus 1/3 infusion; low dose = 1 mg/kg, high-dose = 10 mg/kg), or HBS (Control). Whole blood was sampled from the tail every 10 min during the last hour using a glucometer (AccuCheck Aviva; Roche Diagnostics, Meylan, France).

[5] = tested on: STZ-treated C57BL/6J mice; assay: Cyclopamine tolerance test in STZ-treated mice; assay type: in vivo
Description: as §1

Smoothened = conditions: cyclopamine 100 nM against standard 200 nM SAG; cited from earlier work

O=C(O)CN(CCOCCOCCN(CC(=O)O)CC(=O)O)CC(=O)O [EGTA]
effect on cyclopamine-induced Ca++ response (3T3-L1 adipocytes [1]; EGTA 1 µM): sensitive to extracellular EGTA | effect on SAG- and Shh-induced Ca++ responses (3T3-L1 adipocytes [1]; EGTA 1 µM, extracellular calcium chelator): completely abrogated the SAG-and Shh-induced responses

c1cc(-c2cnn3cc(-c4ccc(OCCN5CCCCC5)cc4)cnc23)ccn1 [compound C]
effect on SAG-induced metabolic rewiring (glucose uptake, lactate production, redox balance) (3T3-L1 adipocytes [2]; SAG 200 nM, compound C 10 µM, nifedipine 20 µM, Ptx 100 ng/ml): abrogated all detectable metabolic rewiring effects following SAG stimulation | effect on cyclopamine-dependent glucose uptake, lactate production and redox rebalancing (3T3-L1 adipocytes [2]; cyclopamine 100 nM, compound C 10 µM, nifedipine 20 µM, Ptx 100 ng/ml): efficiently counteracted

CC1=C2C[C@H]3[C@@H](CC=C4C[C@@H](O)CC[C@@]43C)[C@@H]2CC[C@]12O[C@@H]1C[C@H](C)CN[C@H]1[C@H]2C [cyclopamine, 11-deoxojervine]
NAD+/NADH ratio (3T3-L1 adipocytes [2]; cyclopamine 100 nM): augmentation of the NAD^+/NADH ratio | generation of lactate (3T3-L1 adipocytes [2]; cyclopamine 100 nM): generation of lactate | glucose uptake (3T3-L1 adipocytes [2]; cyclopamine 100 nM): marked glucose uptake | Ampk sensitive FRET signal (AMPK): significant Ampk sensitive FRET signal | Ca++ response (3T3-L1 adipocytes [1]; cyclopamine): rapid and robust Ca^++ response | glucose tolerance (C57BL/6J mice [3]; 10 mg/kg i.p. 15 minutes prior to testing, 2 g/kg oral glucose): moderate but significant improvement in glucose tolerance | basal and glucose-stimulated insulin secretion (C57BL/6J mice [3]; 10 mg/kg i.p. pre-treatment): Neither basal nor glucose-stimulated insulin secretion appeared affected | tissue-specific glucose uptake (glucose tracing) (C57BL/6J mice [4]; LD 1 mg/kg, HD 10 mg/kg, EDL, Soleus, VL): increased glucose-uptake into muscle | time to increase in glucose infusion rate (C57BL/6J mice [4]; after cyclopamine infusion): 10 to 20 min | glucose infusion rate (C57BL/6J mice [4]; low dose 1 mg/kg, high dose 10 mg/kg, somatostatin infusion): robust dose-dependent increases in glucose infusion rate | glucose clearance ([5]; 10 mg/kg i.p., insulin-deficient mice): significant and robust glucose clearance | time to glucose clearance ([5]; after cyclopamine injection, 10 mg/kg): ~30 min | displacing SAG and blocking canonical signalling (Smoothened): incapable of displacing standard 200 nM SAG and blocking canonical signalling

— patent EP2620142A1, “Hedgehog signaling pathway involved in energy metabolism” (Max-Planck-Gesellschaft zur Förderung der Wissenschaften …, priority 2012, dated 2013)
